Laboratory results published in paper PMC6136390, “Coptisine-induced inhibition of Helicobacter pylori: elucidation of specific mechanisms by probing urease active site and its maturation process” (Journal of Enzyme Inhibition and Medicinal Chemistry, 2018).
In brackets after ≈: the same amount, converted by molar mass. Read-outs that look alike come from different tables or passages of the source.

Legend:
[1] = test system: H. pylori strains; test: Minimal inhibitory concentration assay (agar dilution); type: cell-based, Helicobacter pylori; conditions: Helicobacter pylori, NCTC11637; standard strain NCTC 11637, pH 7.2; read-out: MIC
Description: Fourteen H. pylori strains were used in this study. NCTC 11637 and NCTC 26695 strains were purchased from American Type Culture Collection. Sydney Strain-1 (SS1) was kindly provided by Prof. Richard Ferrero of Monash University, Australia. Clinical isolate ICDC 111001 was provided by Prof. Zhang Jian-zhong of the Chinese Center for Disease Control and Prevention, China. Ten clinical isolates (Hp1868, Hp1869, Hp1870, Hp1871, Hp1872, Hp1873, Hp1874, Hp1875, Hp1876, and Hp1877) were obtained from Renji Hospital, Shanghai Jiaotong University.
(§1) All strains were cultured in Columbia agar base containing 7% sheep blood at 37 °C in a micro-aerophilic environment (5% O2, 10% CO2, and 85% N2). After 3 days, H. pylori was scraped and suspended in phosphate buffered saline (PBS). Turbidimetry was employed to adjust the concentrations of different H. pylori strains (turbidity equivalent to 1.0 McFarland standard). Crude HPU was obtained according to the method described by Matsubara et al.[42]
In this study, different concentrations (12.5, 25, 50, and 100 μg/mL) of berberine, palmatine, epiberberine, jatrorrhizine, and coptisine were used to evaluate antimicrobial activity against the standard H. pylori strain NCTC 11637. The agar dilution method was then used to analyse the antibacterial effects of coptisine against two H. pylori standard strains (SS1 and NCTC 26695) and eleven clinical isolates (ICDC 111001, HP 1868, HP 1869, HP 1870, HP 1871, HP 1872, HP 1873, HP 1874, HP 1875, HP 1876, and HP 1877). In this assay, 100 μL of H. pylori suspension (McFarland = 1.0) was added to the test compound-containing or DMSO-containing (control) Columbia blood agar plate. CLR and MET were used as positive controls in this experiment. Minimum inhibitory concentration (MIC) was defined as the lowest concentration at which no strain growth was observed by visual examination after 3 days. This experiment was repeated twice.

[2] = test system: H. pylori cells (SS1); test: pH shock experiment in vivo (urea-dependent survival of H. pylori); type: cell-based, Helicobacter pylori; conditions: 30 min; for surviving bacteria, pH =1: 100 mM HCl pH 1, 5 mM urea; for surviving bacteria, pH =7.2: PBS pH 7.2, 5 mM urea; for inhibition at 100 µM: Helicobacter pylori, 0.5 h
Procedure: H. pylori cells (SS1) were harvested, and the concentration was adjusted to Mc = 4 with saline. Then, bacterial samples were mixed with AHA (positive control, 5 mM) or one of the five alkaloids from Rhizoma Coptidis (coptisine, berberine, jatrorrhizine, epiberberine, and palmatine) in 100 mM HCl (pH = 1) or PBS (pH = 7.2) at 37 °C with or without 5 mM urea. After 30 min of incubation, bacteria were collected by centrifugation at 2000g for 10 min and resuspended in the same volume of PBS. A dilution series (1:1–1:10000) was made from the samples, and the dilutions were plated on solid agar for 5 days to form single colony. Samples from urea-free wells were used as controls. Results are expressed as CFU/mL; the experiment was repeated in triplicate. Inhibition rate was calculated using the following equation: Inhibition rate = (Urea group bacterial mean − X group bacterial mean)/Urea group bacterial mean ×100%, where X represents each experimental group.

[3] = test system: urease; parameters: method as in PMID 26669678; conditions: cited from earlier work
[4] = target: T1, H. pylori urease (HPU) (Helicobacter pylori, UniProt P69996); test: Urease inhibition assay in vitro (modified Berthelot method); type: biochemical; conditions: 20 min pre-incubation at 37 °C, 150 mM urea, pH 7.5; read-out: IC50 for HPU
T1 construct: Crude HPU was obtained according to the method described by Matsubara et al; endogenous in cells; host or cells: cultured Helicobacter pylori (strain not specified)
Procedure: as §1
This assay was performed using the modified Berthelot method (phenol-hypochlorite) in 96 well plates. At the beginning of each reaction, different concentrations of urease solution and 150 mM urea as a substrate were mixed in 20 mM HEPES buffer (pH 7.5) at 37 °C. After a 20-min reaction, urease activity was tested by measuring the concentration of ammonia produced by the reaction at 595 nm using the microplate reader (Thermo Fisher Multiskan FC, Instruments, Inc., USA) at ambient temperature. […] One unit (U) of urease activity was defined as the amount of urease required to catalyse 1 μmol urea per min. […]
Coptisine’s ability to inhibit urease activity was determined by measuring amounts of ammonia produced using the modified Berthelot method described above. […] Residual activity (RA %) for each assay was calculated using the following equation: RA % = (activity with inhibitors/activity without inhibitors) × 100%. […]

[5] = target: T2, jack bean urease (JBU) (Canavalia ensiformis, UniProt P07374); test: as above; type: biochemical; conditions: 20 min pre-incubation at 37 °C, 150 mM urea, pH 7.5; read-out: IC50 for JBU
T2 construct: purchased Sigma Aldrich (Steineheim, Germany) type III (catalogue number not given)
Procedure: This assay was performed using the modified Berthelot method (phenol-hypochlorite) in 96 well plates. At the beginning of each reaction, different concentrations of urease solution and 150 mM urea as a substrate were mixed in 20 mM HEPES buffer (pH 7.5) at 37 °C. After a 20-min reaction, urease activity was tested by measuring the concentration of ammonia produced by the reaction at 595 nm using the microplate reader (Thermo Fisher Multiskan FC, Instruments, Inc., USA) at ambient temperature. […] One unit (U) of urease activity was defined as the amount of urease required to catalyse 1 μmol urea per min. These experiments were repeated in triplicate.
Coptisine’s ability to inhibit urease activity was determined by measuring amounts of ammonia produced using the modified Berthelot method described above. The assay mixture, which contained 200 μL of enzyme and 200 μL of coptisine solution (0.16–2.51 mM) in 200 μL of 20 mM HEPES buffer (pH 7.5), was incubated for 20 min at 37 °C in 96-well plates. The reaction was then initiated by adding urea solution (150 mM) to determine residual urease activity. AHA was used as a standard urease inhibitor. […] Residual activity (RA %) for each assay was calculated using the following equation: RA % = (activity with inhibitors/activity without inhibitors) × 100%. […]

[6] = 100 μM compound, pH 1, 5 mM urea
[7] = 100 μM compound, pH 7.2, 5 mM urea
[8] = 100 μM compound, pH 1, 5 mM urea, read-out: Inhibition rate, pH =1
[9] = 100 μM compound, pH 7.2, 5 mM urea, read-out: Inhibition rate, pH =7.2

T1 sequence (P69996 whole entry): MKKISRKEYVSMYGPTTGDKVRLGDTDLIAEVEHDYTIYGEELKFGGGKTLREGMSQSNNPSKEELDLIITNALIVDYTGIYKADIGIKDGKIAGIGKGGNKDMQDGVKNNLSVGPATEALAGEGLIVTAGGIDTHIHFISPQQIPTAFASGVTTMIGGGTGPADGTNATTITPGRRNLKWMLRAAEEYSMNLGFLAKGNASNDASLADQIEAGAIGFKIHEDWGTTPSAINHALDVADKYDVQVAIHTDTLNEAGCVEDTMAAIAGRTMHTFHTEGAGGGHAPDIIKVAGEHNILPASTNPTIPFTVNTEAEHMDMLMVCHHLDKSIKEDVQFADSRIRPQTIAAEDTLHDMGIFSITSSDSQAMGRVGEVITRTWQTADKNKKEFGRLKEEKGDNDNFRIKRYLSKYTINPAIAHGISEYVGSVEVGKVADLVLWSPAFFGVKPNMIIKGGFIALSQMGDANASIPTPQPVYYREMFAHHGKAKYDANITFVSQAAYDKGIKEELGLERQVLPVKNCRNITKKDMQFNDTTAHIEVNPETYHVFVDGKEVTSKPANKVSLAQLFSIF
T1 sequence (P14916 whole entry, further chain): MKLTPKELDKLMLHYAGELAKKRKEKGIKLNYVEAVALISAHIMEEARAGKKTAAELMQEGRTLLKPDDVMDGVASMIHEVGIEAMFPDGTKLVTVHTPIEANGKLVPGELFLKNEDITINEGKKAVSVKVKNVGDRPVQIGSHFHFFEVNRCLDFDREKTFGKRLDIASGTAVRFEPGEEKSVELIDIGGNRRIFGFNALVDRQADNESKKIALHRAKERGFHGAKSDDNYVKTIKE
T2 sequence (P07374 whole entry, looked up): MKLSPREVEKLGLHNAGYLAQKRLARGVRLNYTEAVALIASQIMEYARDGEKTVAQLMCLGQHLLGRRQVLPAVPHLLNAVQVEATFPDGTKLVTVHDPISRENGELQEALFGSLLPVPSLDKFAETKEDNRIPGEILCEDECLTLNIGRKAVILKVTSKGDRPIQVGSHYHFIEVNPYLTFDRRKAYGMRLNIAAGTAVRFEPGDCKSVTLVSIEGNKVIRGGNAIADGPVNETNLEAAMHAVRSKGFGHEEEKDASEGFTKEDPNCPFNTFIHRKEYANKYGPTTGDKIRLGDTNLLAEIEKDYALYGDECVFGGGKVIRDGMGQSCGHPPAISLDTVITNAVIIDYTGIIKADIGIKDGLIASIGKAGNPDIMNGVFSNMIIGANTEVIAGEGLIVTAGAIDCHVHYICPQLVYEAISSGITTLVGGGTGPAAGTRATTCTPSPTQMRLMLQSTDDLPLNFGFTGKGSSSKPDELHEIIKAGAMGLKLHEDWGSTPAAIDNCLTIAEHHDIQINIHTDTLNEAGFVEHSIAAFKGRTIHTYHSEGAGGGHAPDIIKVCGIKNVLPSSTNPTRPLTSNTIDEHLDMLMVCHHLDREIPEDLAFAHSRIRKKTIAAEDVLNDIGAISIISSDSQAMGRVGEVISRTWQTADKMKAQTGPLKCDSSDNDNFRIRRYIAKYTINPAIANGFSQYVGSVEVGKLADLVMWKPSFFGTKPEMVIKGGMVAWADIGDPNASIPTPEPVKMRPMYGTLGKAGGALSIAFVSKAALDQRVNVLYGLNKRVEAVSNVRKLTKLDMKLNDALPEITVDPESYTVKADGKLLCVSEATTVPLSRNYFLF

Row | Structure (SMILES) | MIC [1] | surviving bacteria, pH =1 ([2]; 100 μM compound) | surviving bacteria, pH =7.2 ([2]; 100 μM compound) | Inhibition rate, pH =1 [2, 6] | Inhibition rate, pH =7.2 [2, 7] | inhibition at 100 µM [2, 8] | inhibition at 100 µM [2, 9] | inhibitory activity against urease [3] | surviving bacteria, pH =1 ([2]; 5 mM compound) | surviving bacteria, pH =7.2 ([2]; 5 mM compound) | Inhibition rate, pH =1 ([2]; 5 mM compound, pH 1, 5 mM urea) | Inhibition rate, pH =7.2 ([2]; 5 mM compound, pH 7.2, 5 mM urea) | IC50 [4] | IC50 [5]
1 | COc1cc2c(cc1OC)-c1cc3ccc4c(c3c[n+]1CC2)OCO4 [Epiberberine] | 100 µg/mL | 481 ± 92 CFU/mL | 1.3 ± 0.3 ×10^4 CFU/mL | failed to inhibit | failed to inhibit | 0% | 0% |  |  |  |  |  |  | 
2 | COc1ccc2cc3[n+](cc2c1OC)CCc1cc2c(cc1-3)OCO2 [Berberine] | 50 µg/mL | 587 ± 103 CFU/mL | 1.2 ± 0.4 ×10^4 CFU/mL | failed to inhibit | failed to inhibit | 0% | 0% | fails to show any inhibitory activity |  |  |  |  |  | 
3 | COc1cc2c(cc1OC)-c1cc3ccc(OC)c(OC)c3c[n+]1CC2 [Palmatine] | 100 µg/mL | 628 ± 110 CFU/mL | 1.2 ± 0.4 ×10^4 CFU/mL | failed to inhibit | failed to inhibit | 0% | 0% |  |  |  |  |  |  | 
4 | CC[C@H]1OC(=O)[C@H](C)[C@@H](O[C@H]2C[C@@](C)(OC)[C@@H](O)[C@H](C)O2)[C@H](C)[C@@H](O[C@@H]2O[C@H](C)C[C@H](N(C)C)[C@H]2O)[C@](C)(OC)C[C@@H](C)C(=O)[C@H](C)[C@@H](O)[C@]1(C)O [CLR, Clarithromycin, reference compound] | 0.02 µg/mL (≈ 0.0267 µM) |  |  |  |  |  |  |  |  |  |  |  |  | 
5 | COc1cc2c(cc1O)CC[n+]1cc3c(OC)c(OC)ccc3cc1-2 [Jatrorrhizine] | 100 µg/mL | 552 ± 98 CFU/mL | 1.2 ± 0.3 ×10^4 CFU/mL | failed to inhibit | failed to inhibit | 0% | 0% |  |  |  |  |  |  | 
6 | CC(=O)NO [Acetohydroxamic acid, reference compound] |  |  |  |  |  |  |  |  | 0 ± 0 CFU/mL | 1.7 ± 0.4 ×10^4 CFU/mL | 100% | 0% | 90 ± 10 µM | 20 ± 10 µM
7 | Cc1ncc([N+](=O)[O-])n1CCO [MET, Metronidazole, reference compound] | 0.5 µg/mL (≈ 2.92 µM) |  |  |  |  |  |  |  |  |  |  |  |  | 
